In this test the test system is AXL. The test can be described thus: Effect of AC and PKA on Hc-CATH-induced AXL downregulation in A549 cells. The test is classed as cell-based, Homo sapiens. To be noted: 1 h pre-incubation of A549 cells, then Hc-CATH 5 μM, 24 h, Western blot. The protocol: Figure 6 Hc-CATH downregulates AXL via inhibiting COX-2/PGE2/AC/PKA pathway.A, effect of Hc-CATH on COX-2 protein level. A549 cells were incubated with Hc-CATH (1.25, 2.5, or 5 μM) or PBS (solvent of Hc-CATH) at 37 °C for 24 h, COX-2 protein level was examined by Western blot (upper panel) and analyzed by ImageJ (lower panel). B, effect of Hc-CATH on the enzymatic activity of COX-2. Hc-CATH (1.25, 2.5, 5, and 10 μM) or PBS was incubated with COX-2. After incubation at 37 °C for 10 min, the enzymatic activity of COX-2 was detected by enzyme activity inhibitor screening kit. Celecoxib (COX-2 inhibitor, 100 nM) was used as positive control. C, effect of Hc-CATH on PGE2 production. A549 cells were incubated with Hc-CATH (5 μM) at 37 °C. After incubation for 24 h, the level of PGE2 in the cell supernatant was detected by ELISA. D and E, effect of AC (D) and PKA (E) on Hc-CATH-induced AXL downregulation. A549 cells were incubated with forskolin (FSK, agonist of AC, 10 μM) or H89 (inhibitor of PKA, 5 μM) at 37 °C. After incubation for 1 h, the culture media were removed, cells were washed three times with PBS, and fresh culture media were added to cells in the presence of Hc-CATH (5 μM). After incubation for 24 h, AXL protein level was examined by Western blot (upper panel of D and E) and analyzed by ImageJ (lower panel of D and E). ns, not significant, ∗∗p < 0.01, and ∗∗∗p < 0.001. […]

Regarding `C=C[C@@]1(C)CC(=O)[C@]2(O)[C@@]3(C)[C@@H](O)CCC(C)(C)[C@@H]3[C@H](O)[C@H](OC(C)=O)[C@@]2(C)O1` [FSK, forskolin], the “effect on Hc-CATH-induced AXL downregulation” value (FSK 10 μM) is given as “effectively counteracted the Hc-CATH-induced AXL downregulation”.

For the compound `O=S(=O)(NCCNC/C=C/c1ccc(Br)cc1)c1cccc2cnccc12` [H89], the “effect on Hc-CATH-mediated AXL downregulation” value (H89 5 μM) is recorded as “significantly facilitated Hc-CATH-mediated AXL downregulation”.

Source of the values: article PMC9530963, “A cathelicidin antimicrobial peptide from Hydrophis cyanocinctus inhibits Zika virus infection by downregulating expression of a viral entry factor” (The Journal of Biological Chemistry, 2022).
